Data published in article PMC3849439, “Peptides Corresponding to the Predicted Heptad Repeat 2 Domain of the Feline Coronavirus Spike Protein Are Potent Inhibitors of Viral Infection” (PLoS ONE, 2013).
“Also recorded” adds a separate entry of the source.

Assays:
[1] = system: Feline coronavirus type II NTU156 strain; conditions: for Inhibition of viral titer (%): highest concentration tested 20 μM, NTU156 MOI 0.1, fcwf-4 cells, triplicate wells; for IC50: NTU156 at MOI 0.1 preincubated with peptide 1 h, then on fcwf-4 cells 1 h, supernatant collected 48 h postinfection and titrated, CPE at 72 h, IC50 by interpolation
fcwf-4 cells = assay: MTT cytotoxicity assay; conditions: 72 h at 37°C, 6.25-200 μM, absorbance 570 nm, triplicate
[2] = system: Feline coronavirus type II NTU156 strain; assay: Combination of FP5 with human IFN-α, viral titer by plaque reduction assay; type: cell-based; conditions: for Viral titer reduction, agent alone: supernatant collected after 48 h, triplicate

Row | Molecule | Inhibition of viral titer (%) [1] | CC50 (fcwf-4 cells) | IC50 [1] | Viral titer reduction, combination ([2]; 20 μM FP5 with 10 to 1000 IU IFN-α, or 10 μM FP5 with 1000 IU IFN-α, NTU156 MOI 0.1, fcwf-4 cells, 48 h) | Inhibitory effect of the combination (in words) ([2]; 20 μM FP5 with 10 to 1000 IU IFN-α, or 10 μM FP5 with 1000 IU IFN-α, two-way analysis of variance P < 0.05) | Inhibitory effect of the combination (in words) ([2]; 10 units of IFN-α combined with 20 μM FP5) | Viral titer reduction, agent alone ([2]; FP5 20 μM alone, NTU156 MOI 0.1, fcwf-4 cells) | Viral titer reduction, agent alone ([2]; IFN-α 1000 IU alone, preincubated with cells 24 h, NTU156 MOI 0.1, fcwf-4 cells)
1 | CC[C@H](C)[C@H](NC(=O)[C@H](CCC(=O)O)NC(=O)CNC(=O)[C@@H](NC(=O)[C@H](CC(C)C)NC(=O)[C@H](CC(N)=O)NC(=O)[C@H](CC(C)C)NC(=O)[C@H](Cc1ccc(O)cc1)NC(=O)[C@@H](NC(=O)[C@H](C)NC(=O)[C@H](CC(N)=O)NC(=O)[C@@H](N)Cc1ccccc1)[C@@H](C)O)[C@@H](C)O)C(=O)N[C@@H](CC(=O)O)C(=O)N[C@@H](CC(=O)O)C(=O)N[C@@H](CC(C)C)C(=O)N[C@@H](CCC(=O)O)C(=O)N[C@@H](Cc1ccccc1)C(=O)N[C@@H](CCCNC(=N)N)C(=O)N[C@@H](CO)C(=O)N[C@@H](CCC(=O)O)C(=O)N[C@@H](CCCCN)C(=O)N[C@@H](CC(C)C)C(=O)O [FP1] | 27% | ≧200 μM | – | – | – | – | – | –
2 | CC[C@H](C)[C@H](NC(=O)[C@H](CCC(=O)O)NC(=O)CNC(=O)[C@@H](NC(=O)[C@H](CC(C)C)NC(=O)[C@H](CC(N)=O)NC(=O)[C@H](CC(C)C)NC(=O)[C@H](Cc1ccc(O)cc1)NC(=O)[C@@H](NC(=O)[C@H](C)NC(=O)[C@H](CC(N)=O)NC(=O)[C@@H](N)Cc1ccccc1)[C@@H](C)O)[C@@H](C)O)C(=O)N[C@@H](CC(=O)O)C(=O)N[C@@H](CC(=O)O)C(=O)N[C@@H](CC(C)C)C(=O)N[C@@H](CCC(=O)O)C(=O)N[C@@H](Cc1ccccc1)C(=O)N[C@@H](CCCNC(=N)N)C(=O)N[C@@H](CO)C(=O)N[C@@H](CCC(=O)O)C(=O)N[C@@H](CCCCN)C(=O)N[C@@H](CC(C)C)C(=O)N[C@@H](Cc1c[nH]cn1)C(=O)N[C@@H](CC(N)=O)C(=O)N[C@H](C(=O)N[C@H](C(=O)N[C@H](C(=O)N[C@@H](CCC(=O)O)C(=O)N[C@@H](CC(C)C)C(=O)O)C(C)C)[C@@H](C)O)[C@@H](C)O [FP2] | 29% | ≧200 μM | – | – | – | – | – | –
3 | CC[C@H](C)[C@H](NC(=O)[C@H](CC(N)=O)NC(=O)[C@H](CC(=O)O)NC(=O)[C@@H](NC(=O)[C@H](CC(C)C)NC(=O)[C@@H](NC(=O)[C@H](C)NC(=O)[C@H](CC(C)C)NC(=O)[C@H](CCC(=O)O)NC(=O)[C@@H](NC(=O)[C@@H](NC(=O)[C@@H](NC(=O)[C@H](CC(N)=O)NC(=O)[C@H](Cc1c[nH]cn1)NC(=O)[C@H](CC(C)C)NC(=O)[C@H](CCCCN)NC(=O)[C@H](CCC(=O)O)NC(=O)[C@H](CO)NC(=O)[C@H](CCCNC(=N)N)NC(=O)[C@H](Cc1ccccc1)NC(=O)[C@H](CCC(=O)O)NC(=O)[C@H](CC(C)C)NC(=O)[C@H](CC(=O)O)NC(=O)[C@H](CC(=O)O)NC(=O)[C@@H](NC(=O)[C@H](CCC(=O)O)NC(=O)CNC(=O)[C@@H](NC(=O)[C@H](CC(C)C)NC(=O)[C@H](CC(N)=O)NC(=O)[C@H](CC(C)C)NC(=O)[C@H](Cc1ccc(O)cc1)NC(=O)[C@@H](NC(=O)[C@H](C)NC(=O)[C@H](CC(N)=O)NC(=O)[C@@H](N)Cc1ccccc1)[C@@H](C)O)[C@@H](C)O)[C@@H](C)CC)[C@@H](C)O)[C@@H](C)O)C(C)C)[C@@H](C)CC)[C@@H](C)CC)C(=O)O [FP3] | 72% | ≧200 μM | 14.2 µM | – | – | – | – | –
4 | CC[C@H](C)[C@H](NC(=O)[C@H](C)NC(=O)[C@H](CC(C)C)NC(=O)[C@H](CCC(=O)O)NC(=O)[C@@H](NC(=O)[C@@H](NC(=O)[C@@H](NC(=O)[C@H](CC(N)=O)NC(=O)[C@H](Cc1c[nH]cn1)NC(=O)[C@H](CC(C)C)NC(=O)[C@H](CCCCN)NC(=O)[C@H](CCC(=O)O)NC(=O)[C@H](CO)NC(=O)[C@H](CCCNC(=N)N)NC(=O)[C@H](Cc1ccccc1)NC(=O)[C@H](CCC(=O)O)NC(=O)[C@H](CC(C)C)NC(=O)[C@H](CC(=O)O)NC(=O)[C@H](CC(=O)O)NC(=O)[C@@H](NC(=O)[C@H](CCC(=O)O)NC(=O)CNC(=O)[C@@H](NC(=O)[C@H](CC(C)C)NC(=O)[C@H](CC(N)=O)NC(=O)[C@H](CC(C)C)NC(=O)[C@H](Cc1ccc(O)cc1)NC(=O)[C@@H](NC(=O)[C@H](C)NC(=O)[C@H](CC(N)=O)NC(=O)[C@@H](N)Cc1ccccc1)[C@@H](C)O)[C@@H](C)O)[C@@H](C)CC)[C@@H](C)O)[C@@H](C)O)C(C)C)C(=O)N[C@@H](CC(C)C)C(=O)N[C@H](C(=O)N[C@@H](CC(=O)O)C(=O)N[C@@H](CC(N)=O)C(=O)N[C@H](C(=O)N[C@@H](CC(N)=O)C(=O)N[C@@H](CC(N)=O)C(=O)N[C@H](C(=O)N[C@@H](CC(C)C)C(=O)N[C@H](C(=O)N[C@@H](CC(N)=O)C(=O)N[C@@H](CC(C)C)C(=O)O)C(C)C)[C@@H](C)O)[C@@H](C)CC)[C@@H](C)CC [FP4] | 93% | ≧200 μM | 1.8 µM | – | – | – | – | –
5 | CC[C@H](C)[C@H](NC(=O)[C@H](C)NC(=O)[C@H](CC(C)C)NC(=O)[C@H](CCC(=O)O)NC(=O)[C@@H](NC(=O)[C@@H](NC(=O)[C@@H](NC(=O)[C@H](CC(N)=O)NC(=O)[C@H](Cc1c[nH]cn1)NC(=O)[C@H](CC(C)C)NC(=O)[C@H](CCCCN)NC(=O)[C@H](CCC(=O)O)NC(=O)[C@H](CO)NC(=O)[C@H](CCCNC(=N)N)NC(=O)[C@H](Cc1ccccc1)NC(=O)[C@H](CCC(=O)O)NC(=O)[C@H](CC(C)C)NC(=O)[C@H](CC(=O)O)NC(=O)[C@H](CC(=O)O)NC(=O)[C@@H](NC(=O)[C@H](CCC(=O)O)NC(=O)CNC(=O)[C@@H](NC(=O)[C@H](CC(C)C)NC(=O)[C@H](CC(N)=O)NC(=O)[C@H](CC(C)C)NC(=O)[C@H](Cc1ccc(O)cc1)NC(=O)[C@@H](NC(=O)[C@H](C)NC(=O)[C@H](CC(N)=O)NC(=O)[C@@H](N)Cc1ccccc1)[C@@H](C)O)[C@@H](C)O)[C@@H](C)CC)[C@@H](C)O)[C@@H](C)O)C(C)C)C(=O)N[C@@H](CC(C)C)C(=O)N[C@H](C(=O)N[C@@H](CC(=O)O)C(=O)N[C@@H](CC(N)=O)C(=O)N[C@H](C(=O)N[C@@H](CC(N)=O)C(=O)N[C@@H](CC(N)=O)C(=O)N[C@H](C(=O)N[C@@H](CC(C)C)C(=O)N[C@H](C(=O)N[C@@H](CC(N)=O)C(=O)N[C@@H](CC(C)C)C(=O)N[C@@H](CCC(=O)O)C(=O)N[C@@H](Cc1c[nH]c2ccccc12)C(=O)N[C@@H](CC(C)C)C(=O)N[C@@H](CC(N)=O)C(=O)N[C@@H](CCCNC(=N)N)C(=O)N[C@H](C(=O)N[C@@H](CCC(=O)O)C(=O)O)[C@@H](C)CC)C(C)C)[C@@H](C)O)[C@@H](C)CC)[C@@H](C)CC [FP5] | – | ≧200 μM | 1.33 µM | up to 4.08 LogPFU/ml | complete inhibitory effect; also recorded: synergetic effects | complete inhibition | 1.81 LogPFU/ml | –
6 | IFN-α | – | – | – | – | – | – | – | 1.46 LogPFU/ml
